Drawing on BindingDB's records for doi:10.1073/pnas.83.13.4918 (Merck Sharp & Dohme Research Laboratories, 1986), this text covers Ki for 18 molecules.

The target of one experiment is T1, Cholecystokinin (Rattus norvegicus, UniProt P01355).
T1 sequence (P01355 whole entry): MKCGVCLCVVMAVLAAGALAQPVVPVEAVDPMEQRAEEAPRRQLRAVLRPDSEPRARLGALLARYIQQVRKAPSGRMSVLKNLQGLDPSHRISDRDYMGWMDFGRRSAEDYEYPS

The target of experiment [1] is Gamma-aminobutyric acid receptor subunit alpha-1 (Rattus norvegicus, UniProt P62813).
Sequence of Gamma-aminobutyric acid receptor subunit alpha-1 (P62813 whole entry): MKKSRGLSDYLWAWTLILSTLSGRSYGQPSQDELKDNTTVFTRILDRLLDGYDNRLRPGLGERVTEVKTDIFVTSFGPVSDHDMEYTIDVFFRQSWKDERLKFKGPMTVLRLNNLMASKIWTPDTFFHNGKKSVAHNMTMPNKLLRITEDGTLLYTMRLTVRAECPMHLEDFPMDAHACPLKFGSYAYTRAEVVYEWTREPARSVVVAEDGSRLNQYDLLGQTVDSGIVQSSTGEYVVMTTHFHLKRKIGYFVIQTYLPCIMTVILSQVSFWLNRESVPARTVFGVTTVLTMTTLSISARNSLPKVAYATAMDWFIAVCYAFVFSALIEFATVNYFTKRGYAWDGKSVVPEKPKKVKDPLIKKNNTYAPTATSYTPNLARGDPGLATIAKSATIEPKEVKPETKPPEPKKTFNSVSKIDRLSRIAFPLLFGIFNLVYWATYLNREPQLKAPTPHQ
Experiment [2] concerns the target GABA(A) receptor-associated protein (Sus scrofa, UniProt D7RA28).

pKi: −log10 of the molar value. Where a SMILES comes first, the peptide text is derived from it. [ ]: non-standard residue; d: D form. The star is where a group is joined. sY = N[C@@H](Cc1ccc(OS(=O)(=O)O)cc1)C(=O)O; Cbz = O=C(OCc1ccccc1)* Where only a bound is given, the exact number is not on record here.

Sequence of GABA(A) receptor-associated protein (D7RA28 whole entry): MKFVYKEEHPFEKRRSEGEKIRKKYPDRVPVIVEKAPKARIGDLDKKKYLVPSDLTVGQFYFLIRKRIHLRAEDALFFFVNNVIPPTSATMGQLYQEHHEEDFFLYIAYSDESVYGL

On Cholecystokinin, `O=C(NC(Cc1c[nH]c2ccccc12)C(=O)O)c1ccc(Cl)cc1` (centres undefined) had a pKi below 5.00.

`O=C1Nc2ccc(Cl)cc2C(c2ccccc2)=N[C@@H]1Cc1c[nH]c2ccccc12`: the negative logarithm of the Ki (pKi) in experiment [1] is below 5.00; at Cholecystokinin it was 5.47.

In the case of `O=C(NC1N=C(c2ccccc2)c2ccccc2NC1=O)c1cc2ccccc2[nH]1` (centres undefined), the pKi was below 5.00 in experiment [1] and 8.33 on Cholecystokinin. `O=C(NC1N=C(c2ccccc2F)c2ccccc2NC1=O)c1cc2ccccc2[nH]1` (centres undefined): the values for the negative logarithm of the Ki (pKi) (at Cholecystokinin; in experiment [2]) were 8.68 and 5.52, respectively. For the molecule `Cc1nnc2n1-c1ccccc1C(c1ccccc1F)=NC2Cc1c[nH]c2ccccc12` (centres undefined), the negative logarithm of the Ki (pKi) at Cholecystokinin is 6.52; in experiment [2], 6.10.

Take `CN1C(=O)[C@H](NC(=O)c2cc3ccccc3[nH]2)N=C(c2ccccc2)c2ccccc21`: in experiment [2], the pKi is below 5.00.

`CN1C(=O)[C@@H](NC(=O)c2cc3ccccc3[nH]2)N=C(c2ccccc2)c2ccccc21` [1H-Indole-2-carboxylic acid (1-methyl-2-oxo-5-phenyl-2,3-dihydro-1H-benzo[e][1,4]diazepin-3-yl)-amide: 0.1C4H10O. 0.15CH2Cl2] had a negative-log Ki (pKi) in experiment [2] below 5.00. At Cholecystokinin, `CSCC[C@H](NC(=O)[C@H](Cc1ccc(OS(=O)(=O)O)cc1)NC(=O)OCc1ccccc1)C(=O)NCC(=O)N[C@@H](Cc1c[nH]c2ccccc12)C(=O)N[C@@H](CCSC)C(=O)N[C@@H](CC(=O)O)C(N)=O` [Benzyloxycarbonyl CCK(27-32)NH2] (Cbz-[sY]MGWMD-NH2) showed a pKi of 5.46. Regarding `O=C1Nc2ccc(Cl)cc2C(c2ccccc2)=N[C@H]1Cc1c[nH]c2ccccc12` [CCK antagonist synthetic 6], the pKi in experiment [1] is 5.25; at Cholecystokinin, below 5.00.

Molecule `CN1C(=O)[C@@H](Cc2c[nH]c3ccccc23)N=C(c2ccccc2)c2cc(Cl)ccc21` [CCK antagonist synthetic 7] showed a pKi on Cholecystokinin of 5.85. On to `O=C1Nc2ccccc2C(c2ccccc2)=N[C@@H]1Cc1c[nH]c2ccccc12` [CCK antagonist synthetic 8], for which the negative-log Ki (pKi) in experiment [1] was below 5.00; on Cholecystokinin it was 5.92.

Take `O=C1Nc2ccccc2C(c2ccccc2F)=N[C@@H]1Cc1c[nH]c2ccccc12` [CCK antagonist synthetic 9]: the pKi on Cholecystokinin was 6.30; in experiment [2], below 5.00. As for `CN1C(=O)[C@@H](Cc2c[nH]c3ccccc23)N=C(c2ccccc2F)c2ccccc21` [CCK antagonist synthetic 11], the pKi is 6.57 on Cholecystokinin and below 5.00 in experiment [2]. As to `O=C(O)CN1C(=O)[C@@H](Cc2c[nH]c3ccccc23)N=C(c2ccccc2F)c2ccccc21` [CCK antagonist synthetic 13], the negative-log Ki (pKi) at Cholecystokinin is 6.52; in experiment [2], below 5.00. Take `Cc1ccc2c(C(=O)NC3N=C(c4ccccc4F)c4ccccc4NC3=O)c[nH]c2c1` (centres undefined) [CCK antagonist synthetic 15]: the pKi on Cholecystokinin was 5.96. At Cholecystokinin, `CC(=O)NC1N=C(c2ccccc2F)c2ccccc2NC1=O` (centres undefined) [CCK antagonist synthetic 16] showed a negative-log Ki (pKi) below 5.00. With `O=C(O)CN1C(=O)C(NC(=O)c2cc3ccccc3[nH]2)N=C(c2ccccc2)c2ccccc21` (centres undefined) [CCK antagonist synthetic 20], the negative logarithm of the Ki (pKi) at Cholecystokinin was 8.85; in experiment [2] it was below 5.00. For `CN1C(=O)C(NC(=O)c2cc3ccccc3[nH]2)N=C(c2ccccc2)c2cc(F)ccc21` (centres undefined) [CCK antagonist synthetic 22], the negative logarithm of the Ki (pKi) on Cholecystokinin is 8.85; in experiment [2], 5.11.

As a reminder, the pKi is −log10 of the Ki, conventionally taken in molar units.
